pEC50, pKd: −log10 of the molar value.
Legend:
human preadipocytes = test: Intracellular Ca2+ ([Ca2+]i) response in human preadipocytes; assay type: cell-based
human adipocytes = test: Intracellular Ca2+ ([Ca2+]i) by fura-2 fluorometry in isolated human adipocytes; assay type: cell-based
Procedure: FIG. 2. Glibenclamide stimulation of [Ca^2+]i in isolated human adipocyte. [Ca^2+]i in isolated human adipocytes was determined fluorometrically as previously described (4,7). Briefly, the human adipocytes isolated as described above were incubated in DMEM medium overnight for cell recovery. Prior to [Ca^2+]i measurement, adipocytes were pre-incubated in serum-free medium for 2 hrs, rinsed with HBSS solution containing the following components in mM: NaCl 138, CaCl2 1.8, MgSO4 0.8, NaH2PO4 0.9, NaHCO3 4, glucose 20, glutamine 6, HEPES 20 and BSA 1%. Cells were then loaded with fura-2 acetoxymethyl ester (10 μM) in the same buffer for 45 min at 37° C. in the dark with continuous shaking. To remove extracellular dye, cells were rinsed with HBSS for 3 times and resuspended in this solution at a concentration of 2×10^5 cells/ml. [Ca^2+]i was measured using dual excitation (340 and 380 nm) and single emission (510 nm) fluorometry. Following the establishment of stable baseline, the response to glibenclamide (10 and 20 μM) was determined. Digitonin (25 μM) and Tris/EGTA (100 mM) were used to measure maximal and minimal fluorescence to calibrate the signals, and final [Ca^2+]i was then calculated by the equation of Grynkiewicz et al. (17). […] Glibenclamide (Glib) was added at time designated by the arrow. B. The dose-responsive effect of glibenclamide on [Ca^2+]i in human adipocytes. Glibenclamide was added at 10 and 20 µM at the indicated times. *p<0.05 vs. Control, **p<0.05 vs. 10 μM glibenclamide.
The functionality of the SUR1 receptor was determined with respect to calcium mobilization and small molecule effects. [Ca^2+]i response was measured fluorometrically in isolated human adipocytes using a standard method (2,16). Briefly, isolated human adipocytes were incubated in DMEM or any other suitable medium such as Ham's F-10, Modified Eagle's media plus 5-10% fetal calf serum overnight for cell recovery. Prior to [Ca^2+]i measurement, adipocytes were pre-incubated in serum-free medium for 2 hrs, rinsed with HBSS solution containing the following components in mM: NaCl 138, CaCl2 1.8, MgSO4 0.8, NaH2PO4 0.9, NaHCO3 4, glucose 20, glutamine 6, HEPES 20 and BSA 1%. Cells were then loaded with fura-2 acetoxymethyl ester (10 μM) in the same buffer for 30-60 min at 37° C. in dark with continuous shaking. To remove extracellular dye, cells were rinsed with HBSS for three times and resuspended in this solution at a concentration of 1-10×10^5 cells/ml. [Ca^2+]i was measured using dual excitation (340 and 380 nm) and single emission (510 nm) fluorometry. Following the establishment of stable baseline, the response to a SUR agonist such as glibenclamide (1-20 μM) can be determined. Digitonin (25 μM) and Tris/EGTA (100 mM) were used to measure maximal and minimal fluorescence to calibrate the signals, and final [Ca^2+]i was then calculated by a known method such as described in Grynkiewicz et al (17).
Correlation of lipolysis with flux of intracellular calcium ([Ca^2+]i) concentration is then performed. [Ca^2+]i is measured in primary adipocytes. For primary adipocytes, 3 ml of cells are resuspended in 6 ml of HBSS and fura-2/AM was loaded for 80 min at 37° C. Extracellular fura-2/AM is washed three times with HBSS by centrifugation. [Ca^2+]i levels are then measured fluorometrically in suspensions using dual excitation (340 and 380 nm)/single emission (510 nm) fluorometry and [Ca^2+]i is calculated by the computer in the fluorometer. As a control, after loading fura-2/AM cells are pretreated with nitrendipine (RBI, Natick, Mass.) (30 μM, final concentration) for 10 min at 37° C.

[1] = system: GPDH activity in human adipocytes; test: GPDH activity in human adipocytes; assay type: cell-based
Procedure: FIG. 3. The lipogenic effect of glibenclamide in human adipocytes. As an indicator of lipogenic stimulation, both FAS and GPDH activity were measured. A. Glibenclamide stimulation of FAS activity. Human adipocytes were treated with 10 μM glibenclamide alone, 10 μM glibenclamide plus 10 μM diazoxide or 10 μM glibenclamide plus 30 μM nitrendipine for 48 hr. FAS was measured as described (6, 14). *p<0.001 vs. Control. B. Glibenclamide stimulation of GPDH activity. Human adipocytes were treated with 10 μM glibenclamide or 10 μM glibenclamide plus 10 μM diazoxide for 48 hr. GPDH activity was measured as described (14). *p<0.01 vs. Control.
To study the role of adipocyte SUR1 in regulating lipogenesis, we treated human adipocyte with SUR1 agonist and antagonist using FAS and GPDH activities as lipogenic markers. Human adipocytes were incubated in 24-well plates with the treatments indicated for 48 hr. FAS and GPDH activities were determined spectrophotometrically in crude cytosolic extracts of human adipocytes by measuring the oxidation rate of NADPH or NADH respectively, as previously described (14). The protein correction was measured by a modified Bradford method using Coomassie Blue dye (Pierce, Rockford, Ill.).

[2] = system: FAS activity in human adipocytes; test: Fatty acid synthase (FAS) activity in human adipocytes; assay type: cell-based; conditions: for fatty acid synthase activity: control 1.93±0.24
rat adipocytes = conditions: read-out: KD of glibenclamide binding; cited from earlier work

pEC50 (human adipocytes; Adipocyte, human adipocytes, read-out: EC50 for increase in intracellular free calcium): ~6.00
Structure (SMILES): COc1ccc(Cl)cc1C(=O)NCCc1ccc(S(=O)(=O)NC(=O)NC2CCCCC2)cc1 [glibenclamide]
[Ca2+]i response (human preadipocytes): did not exhibit any [Ca^2+]i response
[Ca2+]i response (human adipocytes; 20 µM glibenclamide (FIG. 2A)): increase in intracellular calcium
[Ca2+]i response (human adipocytes; 1-20 μM, dose-dependent manner): sustained increases
maximum response of intracellular free calcium (human adipocytes; graded doses, over a baseline of 190 nM): 388 ± 72 nM
increase in GPDH activity ([1]; 10 μM glibenclamide, 48 hr): 48%
GPDH activity ([1]; 10 μM glibenclamide, 48 hr, control 554.0±33.0): 821.0±73.4 NADH nM/min/mg protein
increased GPDH activity ([1]; SUR agonists such as glibenclamide, general description): 50-100%
fatty acid synthase activity ([2]; 2 μM glibenclamide): 7.90±0.4 nmol/min/mg protein
increase in adipocyte FAS activity ([2]; 10 μM glibenclamide, 48 hr): 67%
FAS activity ([2]; 10 μM glibenclamide, 48 hr, control 0.692±0.052): 1.154±0.010 NADPH nM/min/mg protein
fatty acid synthase activity ([2]; 10 μM glibenclamide): 12.8 ± 0.6 nmol/min/mg
increased FAS activity from basal levels ([2]; SUR agonist such as glibenclamide, general description): 50%-500%
pKd (rat adipocytes): 5.52 to 6.00

Source: US6569633B1, “Modulation of the sulfonylurea receptor and calcium in adipocytes for treatment of obesity/diabetes” (Artecel Science, Inc., priority 1998, dated 2003)
